Measurements taken from article PMC3891991, “Synthesis and molecular modeling of six novel monastrol analogues: evaluation of cytotoxicity and kinesin inhibitory activity against HeLa cell line” (DARU Journal of Pharmaceutical Sciences, 2013).
Values after ≈ are worked out from the molar mass of the structure shown.

Tests used:
[1] = target: T1, kinesin heavy chain Motor (Homo sapiens, UniProt P33176); test: Kinesin ATPase activity assay (ELIPA kit, inorganic phosphate); assay type: biochemical; conditions: ATPase activity of kinesin, n = 2, read-out: IC 50 (μg/ml) for Kinesin inhibition (converted)
T1 construct: kinesin heavy chain Motor (Cytoskeleton, Cat # KR01-A); purchased Cytoskeleton KR01-A
T1 sequence (P33176 8-325 limits assumed): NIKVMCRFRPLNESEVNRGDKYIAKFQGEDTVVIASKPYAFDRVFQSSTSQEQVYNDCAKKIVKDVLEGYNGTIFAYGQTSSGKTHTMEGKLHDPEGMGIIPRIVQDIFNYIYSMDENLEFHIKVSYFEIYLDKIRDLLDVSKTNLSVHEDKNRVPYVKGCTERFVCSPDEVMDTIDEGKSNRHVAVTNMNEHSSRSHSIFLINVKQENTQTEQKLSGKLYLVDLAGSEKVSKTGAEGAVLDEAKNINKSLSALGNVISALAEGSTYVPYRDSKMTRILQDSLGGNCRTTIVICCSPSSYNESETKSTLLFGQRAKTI

HeLa cell line = test: MTT cytotoxicity assay on HeLa cells; conditions: Homo sapiens, 24 h, read-out: IC 50 (μg/ml) ± SD on HeLa cell line
Protocol: HeLa cell line was obtained from National Cell Bank of Iran, Pasteur Institute of Iran.
Cytotoxic effects of synthesized compounds were determined using the MTT [3-(4,5-dimethylthiazol-2-yl)-2,5-diphenyltetrazolium bromide] assay [18-20]. Briefly, 5000 HeLa cells/well were seeded in a 96-well plate and cultured overnight. Different concentrations of synthesized compounds were added to each well. […] Then, the medium was removed, and the purple formazan crystals were dissolved in 150 μl dimethylsulfoxide (Merck, Germany). Absorbance was measured at 545 nm (630 nm as a reference) in Synergy H4 Hybrid Multi-Mode Microplate Reader (Biotek, Model: H4MLFPTAD). IC50 was calculated using CalcuSyn (BioSoft).
HeLa cells were incubated with different concentrations of newly synthesized compounds for 24 h and cytotoxicities were evaluated using MTT assay.

Compound	melting point	IC50 [1]	IC50 (HeLa cell line)
CSc1ncc(C2NC(=S)NC3=C2C(=O)CC(C)(C)C3)n1Cc1ccccc1Cl (stereo not drawn) [Compound 4d, 4-[1-(2-chlorobenyl)-2-methylthio-1H-imidazol-5-yl]-1,2,3,4,7,8-hexahydro-7,7 dimethyl-2-thio oxoquinazoline-5-(6H)-one]	142 °C	–	–
CSc1ncc(C2NC(=S)NC3=C2C(=O)CC(C)(C)C3)n1Cc1ccccc1 (stereo not drawn) [Compound 4b, 4-[1-benzyl-2-(methylthio)-1H-imidazol-5-yl)-1,2,3,4,7,8-hexahydro-7,7 dimethyl-2-thio oxoquinazoline-5-(6H)-one]	157 °C	187 µM	301 ± 22 µg/mL (≈ 730 µM)
CC1(C)CC(=O)C2=C(C1)NC(=S)NC2c1cccc(O)c1 (stereo not drawn) [dimethylenastrone, dimethylenastron, reference compound]	–	–	338 ± 26 µg/mL (≈ 1120 µM)
CC(=O)O[C@H]1C(=O)[C@@]2(C)[C@H]([C@H](OC(=O)c3ccccc3)[C@]3(O)C[C@H](OC(=O)[C@H](O)[C@@H](NC(=O)c4ccccc4)c4ccccc4)C(C)=C1C3(C)C)[C@]1(OC(C)=O)CO[C@@H]1C[C@@H]2O [Taxol, reference compound]	–	8.2 µM	–

The next lines start with results.

melting point	IC50 [1]	Compound	IC50 (HeLa cell line)
149 °C	460 µM	CSc1ncc(C2NC(=S)NC3=C2C(=O)CC(C)(C)C3)n1Cc1ccc(F)cc1 (stereo not drawn) [Compound 4f, 4-[1-(4-fluorobenzyl)-2-methylthio-1H-imidazol-5-yl]-1,2,3,4,7,8-hexahydro-7,7-dimethyl-2-thiooxoquinazoline-5-(6H)-one]	339 ± 23 µg/mL (≈ 787 µM)
82 °C	232 µM	CSc1ncc(C2NC(=O)NC3=C2C(=O)CC(C)(C)C3)n1Cc1ccc(F)cc1 (stereo not drawn) [Compound 4e, 4-[1-(4-fluorobenzyl)-2-(methylthio)-1H-imidazol-5-yl]-3,4,7,8 – tetrahydro-7,7 dimethyl quinazoline-2,5-(1H,6H)-diones]	110 ± 28 µg/mL (≈ 265 µM)
169 °C	182 µM	CSc1ncc(C2NC(=O)NC3=C2C(=O)CC(C)(C)C3)n1Cc1ccccc1 (stereo not drawn) [Compound 4a, 4-[1-benzyl-2-(methylthio)-1H-imidazol-5-yl)-3,4,7,8-tetrahydro-7,7 dimethyl-quinazoline-2,5-(1H,6H)-diones]	210 ± 21 µg/mL (≈ 530 µM)
149 °C	183 µM	CSc1ncc(C2NC(=O)NC3=C2C(=O)CC(C)(C)C3)n1Cc1ccccc1Cl (stereo not drawn) [Compound 4c, 4-[1-(2-chlorobenzyl)-2-(methylthio)-1H-imidazol-5-yl]-3,4,7,8-tetrahydro-7,7 dimethyl quinazoline-2,5-(1H,6H)-diones]	98 ± 19 µg/mL (≈ 227 µM)
